According to patent US4018775A, “5-Phenyl-thiazolidin-4-one derivatives” (Warner-Lambert Company, priority 1974, dated 1977):
Where two headings read alike, the source gives them in different places.

What was measured:
Assay type in all cases: in vivo
[1] = Acute toxicity in the 7 day test on mice; details: mouse, in vivo, po; male NMRI mice, intragastral (i.g.), 7 days observation
Protocol: (§1) The acute toxicity of the thiazolidones according to the present invention was investigated on male mice (NMRI) with a body weight of 21-26 g. Before commencement of the experiment, the animals fasted for 24 hours but with water available ad libitum. There were 4 mice in each dosage group. The dosage was increased by a factor of 2. The test compounds were suspended in a 1% tragacanth mucilage and administered intragastrally by, means of a stomach probe. The amount of liquid administered was 0.2 ml./10 g. body weight. […] Silymarin was used as standard substance. The LD50 values determined are set out in the following Table I: […]

[2] = system: mice with liver damage caused by α-amanitine; experiment: Anti-hepatotoxic action: survival rate of mice with liver damage caused by α-amanitine; details: for effect on survival rate of α-amanitine liver damaged mice (in words): in comparison with untreated control animals
Protocol: As a further animal experimental test model for the testing of the anti-hepatotoxic actions of pharmaceuticals, use is made of the liver damage in mice produced by α-amanitine.
Since it is extremely difficult to obtain α-amanitine in sufficient amounts, only a small amount of α-amanitine was available for these experiments so that the experiments could only be carried out to a very limited extent.
The influence of Compounds Nos. 1 and 4 was determined on the survival rate of mice with liver damage brought about by α-amanitine. As standard substance, there was again used silymarin which was tested by us in the dosage found to be effective by Hahn et al. (Arzneimittel Forschung, 18, 697/1968) as an anti-hepatotoxic in the same experimental procedure.
Each experimental group consisted of 25 animals. The test substances were administered daily over a period of 6 days, administration being intragastrally in a tragacanth mucilage (0.2 ml./10 g. body weight), using a stomach probe.
The intraperitoneal administration of, in each case, 0.3 mg./kg. α-amanitine took place in all experimental groups on the second day of the experiment. The dosage of α-amanitine was so chosen that the mortality rate of the untreated animals remained below 100%. The survival rate of the animals of all experimental groups was monitored daily for a total period of 14 days. The statistical comparison of the survival rate took place according to the Vierfelder […]. The comparative values obtained are set out in the following Table III: […]

male mice (NMRI) = experiment: Acute toxicity in the 7 day test on mice; details: intragastral (i.g.), 7 days observation
Protocol: as §1

[3] = 2 × 250 mg/kg/day i.g., untreated 52%, 14 days

SMILES | LD50 at 168 h [1] [mg/kg] | survival rate of α-amanitine liver damaged animals, treated [2, 3] [%] | effect on survival rate of α-amanitine liver damaged mice (in words) [2] | LD50 (male mice (NMRI)) | survival rate of α-amanitine liver damaged animals, treated [2] [%]
CCOC(=O)C=C1SC(c2ccccc2)(N2CCCCC2)C(=O)N1C (stereo not drawn) [Compound 1, ethyl 3-methyl-5-phenyl-5-N-piperidino-4-oxo-Δ^2,^α -thiazolidine-acetate] | > 1600 | 92 | clearly increases the survival rate |  | 
CCOC(=O)C=C1SC(c2ccccc2)(N2CCCC2)C(=O)N1C (stereo not drawn) [Compound 2, ethyl 3-methyl-5-phenyl-5-N-pyrrolidino-4-oxo-Δ^2,^α -thiazolidine-acetate] | > 1600 |  |  |  | 
CCOC(=O)C=C1SC(CC)(c2ccccc2)C(=O)N1C (stereo not drawn) [Compound 3, ethyl 3-methyl-5-ethyl-5-phenyl-4-oxo-Δ^2,^α -thiazolidine-acetate] | ~1600 |  |  | about 1600 mg./kg. | 
CCOC(=O)C=C1SC(c2ccccc2)(N2CCCCC2)C(=O)N1CC (stereo not drawn) [Compound 4, Ethyl 3-ethyl-5-phenyl-5-N-piperidino-4-oxo-Δ^2,^α -thiazolidine-acetate] | > 1600 | 100 | statistically highly significant |  | 100
CCOC(=O)C=C1SC(c2ccccc2)(N(C)CCO)C(=O)N1CC (stereo not drawn) [Compound 5, Ethyl 3-ethyl-5-phenyl-5-(methyl-β-hydroxyethylamino)-4-oxo-Δ^2,^α -thiazolidine-acetate] | > 1600 |  |  |  | 
